Measured values reported in US20200129622A1, “METHODS OF MAKING ANTIMICROBIAL BIOPOLYMER FROM SODIUM ALGINATE AND ALGAE EXTRACT USING AMINOGLYCOSIDES, AND METHODS OF USING THE SAME” (Colorado School of Mines, priority 2018, published 2020).
Where a name gives a salt, the structure may show the parent alone.

Each molecule was assayed on E. coli DH5α (assay: Antimicrobial activity by agar diffusion assay (zone of inhibition)). Settings: 50 μl of 10 mg/ml aqueous antibiotic stock in agar well; 37° C., 18 hr.
Assay type: cell-based
Parameters: unit not given here
Procedure: Antimicrobial activity of polymers was checked against E. coli DH5α using agar diffusion assay. Single colony of E. coli was inoculated in 10 ml of Luria Broth (LB) and incubated till OD600 reached 0.5 (log-phase culture) and 100 μl of bacterial culture was spread over LB agar plates. To check the antimicrobial activity of the antibiotics, wells were made by punching a hole in the LB agar plates. For reference plates, 50 μl of 10 mg/ml aqueous stock solution of each antibiotic was added in the wells as shown in the top row of FIG. 6.
For experiments with alginate polymers, polymer pellets were washed three times with sterile DI water to remove any unbound free antibiotics. Each washing step included the addition of 500 μl of sterile DI water and centrifugation at 10000 rpm for 15 min. After washing, polymer pellets were placed at the center of the LB plates with E. coli DH5α. Plates were incubated at 37° C. for 18 hours (hr). The zone of inhibition, e.g., the area with no growth of bacteria around well or polymer pellet, was measured using a ruler as shown in the middle and bottom rows of FIG. 6 and in Table 3 below.
The antimicrobial property of alginateaminoglycoside polymer against E. coli DH5α was quantified by measurement of the zone of bacterial inhibition. In particular, aminoglycoside biopolymers were prepared in microcentrifuge tubes and after centrifugation, pellet was washed three times with sterile deionized water to remove free antibiotic. After washing, the polymer pellet was carefully removed using a spatula and placed at the center of the plate containing E. coli DH5α cells and incubated for 18 hr. After incubation for 18 hr, white polymer pellets became transparent to varying degrees.
In particular, circular zones of growth inhibition are visible after antibiotics and polymers were placed in wells at the centers of LB plates. […] While polymers made with KS, GS, and KDS became transparent, polymers made with TS and NS remained white.

Point of comparison: `[H]/N=C(/N)N[C@H]1[C@H](O)[C@@H](O)[C@H](O[C@@H]2O[C@@H](C)[C@](O)(C=O)[C@H]2O[C@@H]2O[C@@H](CO)[C@H](O)[C@@H](O)[C@@H]2NC)[C@@H](N/C(N)=N\[H])[C@@H]1O` [SS, streptomycin sulfate], “diameter of zone of inhibition, Antibiotic only” value 3.5 ± 0.1. Against it:
- gentamicin sulfate [GS] — lower, 2.9 ± 0.1
- tobramycin sulfate [TS] — lower, 3.1 ± 0.1
- kanamycin disulfate [KDS] — lower, 3.0 ± 0.1
- neomycin sulfate [NS] — lower, 3.0 ± 0.2
- NC[C@H]1O[C@H](O[C@H]2[C@H](O)[C@@H](O[C@H]3O[C@H](CO)[C@@H](O)[C@H](N)[C@H]3O)[C@H](N)C[C@@H]2N)[C@H](O)[C@@H](O)[C@@H]1O [KS, kanamycin sulfate] — within error, 3.4 ± 0.1
